Results as given in patent US10919859B2, “Benzylaminopyridylcyclopropanecarboxylic acids, pharmaceutical compositions and uses thereof” (Boehringer Ingelheim International GmbH, priority 2017, dated 2021).
≈ marks a conversion by molar mass, not a printed value.

What was measured:
[1] = target: human GPR40 receptor (Homo sapiens (Human), UniProt O14842); experiment: IP1 accumulation measurements using the IPOne assay system; assay type: cell-based; settings: 1321N1 cells stably expressing human GPR40, 1 h at 37° C.
Protocol: IP1 accumulation measurements using the IPOne assay system—1321N1 cells stably expressing human GPR40 receptor (Euroscreen, Belgium) are seeded 24 h before the assay in white 384-well plates in culture medium containing 10% FCS, 1% Na-Pyruvate and 400 μg/mL G418. IP1 is assayed according to the manufacturer's description (Cisbio Bioassays, France). In brief, the assay is started by substitution of the culture medium by stimulation buffer (Hepes 10 mM, CaCl2 1 mM, MgCl2 0.5 mM, KCl 4.2 mM, NaCl 146 mM, glucose 5.5 mM and LiCl 50 mM, pH 7.4). Cells are stimulated for 1 h at 37° C., 5% CO2 by addition of the compounds that are diluted in stimulation buffer containing LiCl. Assays are stopped by adding HTRF-conjugates (IP1-d2 and Anti-IP1 cryptate Tb) and lysis buffer, provided by the manufacturer. After an incubation time of 1 h at room temperature plates are measured using an EnVision™, Perkin Elmer. The obtained fluorescence ratios at 665/615 […] are then used to calculate the pEC50 values using Assay Explorer 3.3 Software (Accelrys, Inc.) by interpolation using an IP1 reference curve and subsequent sigmoidal curve fitting allowing for a variable hill slope.

[2] = Aqueous solubility (buffer vs acetonitrile/water, LC-UV); assay type: physicochemical; settings: for solubility at 24 h: aqueous buffer, kinetic from dmso stock
Protocol: The aqueous solubility of the compounds of the invention is determined by comparing the amount dissolved in buffer to the amount in an acetonitrile/water (1/1) solution. Starting from a 10 mM DMSO stock solution aliquots are diluted with acetonitrile/water (1/1) or buffer, respectively. After 24 h of shaking, the solutions are filtrated and analyzed by LC-UV. The amount dissolved in buffer is compared to the amount in the acetonitrile solution.

[3] = pH 2.2 buffer, 24 h shaking, 2.5% DMSO, examples in this invention

Sequence of human GPR40 receptor (O14842 whole entry): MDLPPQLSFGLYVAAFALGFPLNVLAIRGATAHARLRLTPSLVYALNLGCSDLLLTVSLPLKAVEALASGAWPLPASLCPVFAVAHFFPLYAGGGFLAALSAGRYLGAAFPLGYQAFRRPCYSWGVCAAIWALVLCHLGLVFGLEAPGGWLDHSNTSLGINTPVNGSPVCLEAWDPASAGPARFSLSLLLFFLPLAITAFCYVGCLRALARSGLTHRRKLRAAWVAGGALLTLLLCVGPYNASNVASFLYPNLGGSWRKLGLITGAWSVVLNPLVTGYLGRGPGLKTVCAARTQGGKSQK

Structure (SMILES) | EC50 [1] [nM] | Solubility at pH value 2.2 ([2]; pH 2.2) [μg/mL] | solubility at 24 h [2, 3] [µg/mL] | Solubility at pH value 2.2 [2, 3] [μg/mL]
Cc1cc(OCC(C)(C)C#N)cc(C)c1-c1ccc(F)c(CNc2ccc([C@H]3C[C@@H]3C(=O)O)nc2)c1 [Example 13] | 59 | 49 | – | –
Cc1cccc(C)c1-c1ccc(F)c(CNc2ccc([C@H]3C[C@@H]3C(=O)O)nc2)c1 [Example 41] | 41 | 59 | – | –
Cc1cc(-c2nnn(C)n2)cc(C)c1-c1ccc(F)c(CNc2ccc([C@H]3C[C@@H]3C(=O)O)nc2)c1 [Example 11] | 8 | 56 | – | –
COc1cc(C)c(-c2ccc(F)c(CNc3ccc([C@H]4C[C@@H]4C(=O)O)nc3)c2)c(C)c1 [Example 35] | 49 | 63 | – | –
CC(C)(O)CCOc1ccc(-c2cc(CNc3ccc([C@H]4C[C@@H]4C(=O)O)nc3)ccc2C(F)(F)F)cc1 [Example 2, (1S,2S)-2-(5-{[4′-(3-Hydroxy-3-methyl-butoxy)-6-trifluoromethyl-biphenyl-3-ylmethyl]-amino}-pyridin-2-yl)-cyclopropanecarboxylic acid] | 17 | – | 72 (≈ 140 µM) | –
COc1ccc(-c2ccc(-c3cc(CNc4ccc([C@H]5C[C@@H]5C(=O)O)nc4)c(F)cc3F)cc2)nc1 [Example 7, (1S,2S)-2-(5-{[4,6-Difluoro-4′-(5-methoxy-pyridin-2-yl)-biphenyl-3-ylmethyl]-amino}-pyridin-2-yl)-cyclopropanecarboxylic acid] | 27 | – | 77 (≈ 158 µM) | –
O=C(O)[C@H]1C[C@@H]1c1ccc(NCc2cc(-c3c(F)cc(F)cc3F)ccc2F)cn1 [Example 23] | 505 | 53 | – | –
Nc1cc(F)c(-c2ccc(F)c(CNc3ccc([C@H]4C[C@@H]4C(=O)O)nc3)c2)c(F)c1 [Example 34] | 1450 | 79 | – | –
Cc1cc(C(N)=O)cc(C)c1-c1ccc(F)c(CNc2ccc([C@H]3C[C@@H]3C(=O)O)nc2)c1 [Example 27] | 401 | 62 | – | –
Cc1cc(O[C@H]2CCOC2)cc(C)c1-c1ccc(F)c(CNc2ccc([C@H]3C[C@@H]3C(=O)O)nc2)c1 [Example 25] | 28 | 69 | – | –
O=C(O)[C@H]1C[C@@H]1c1ccc(NCc2cc(-c3ccc(-c4cnco4)cc3)ccc2F)cn1 [Example 32] | 174 | – | – | 56
N#Cc1cccc(C#N)c1-c1ccc(F)c(CNc2ccc([C@H]3C[C@@H]3C(=O)O)nc2)c1 [Example 38] | > 10000 | >83 | – | –
Cc1cc(-c2ccn(C)c(=O)c2)cc(C)c1-c1ccc(F)c(CNc2ccc([C@H]3C[C@@H]3C(=O)O)nc2)c1 [Example 17] | 18 | 73 | – | –
Cc1cc(OCCCS(C)(=O)=O)cc(C)c1-c1cccc(CNc2ccc([C@H]3CC3C(=O)O)nc2)c1 (some centres unmarked) [Example 1] | 50 | – | 83 (≈ 163 µM) | –
O=C(O)[C@H]1C[C@@H]1c1ccc(NCc2cc(-c3c(F)cccc3F)ccc2F)cn1 [Example 39] | 435 | 46 | – | –
O=C(O)[C@H]1C[C@@H]1c1ccc(NCc2cc(-c3c(Cl)cccc3Cl)ccc2F)cn1 [Example 30] | 34 | 53 | – | –
COc1ccc(-c2ccc(-c3cc(CNc4ccc([C@H]5C[C@@H]5C(=O)O)nc4)c(F)cc3F)cc2)nn1 [Example 6, (1S,2S)-2-(5-{[4,6-Difluoro-4′-(6-methoxy-pyridazin-3-yl)-biphenyl-3-ylmethyl]-amino}-pyridin-2-yl)-cyclopropanecarboxylic acid] | 64 | – | 56 (≈ 115 µM) | –
Cc1cc(C(=O)N(C)C)cc(C)c1-c1ccc(F)c(CNc2ccc([C@H]3C[C@@H]3C(=O)O)nc2)c1 [Example 42] | 231 | 71 | – | –
N#CC1(c2ccccc2-c2ccc(F)c(CNc3ccc([C@H]4C[C@@H]4C(=O)O)nc3)c2)CC1 [Example 29] | 696 | 57 | – | –
